pEC50: −log10 of the molar value. Read-outs that look alike come from different tables or passages of the source.
Key:
[1] = test system: CEM-CCRF human lymphoblast cells; experiment: Transwell migration assay in CEM-CCRF lymphoblasts; assay type: cell-based; conditions: for pEC50: read-out: Migration CEM EC50; for EC50: read-out: Migration CEM EC50 (μM)
Experimental: Thus, to confirm CXCR4 functional activity, UCUF-728 was evaluated in a 96 w transwell migration assay in CEM human lymphoblast cells.
CEM-CCRF (ATCC CCL-119) were suspended in RPMI 1640 (Corning; 10-040-CV) at 5.0×10^5 cells/mL and allowed to incubate in cell culture incubator at 37° C. with 5% CO2 for one hour. […] Plates were reassembled and placed in a cell culture incubator at 37° C. with 5% CO2 for three hours. After incubation, Multi-Screen plate was disassembled and 100 μl of solution was collected from compound receiver tray and transferred to 96 well luminescent plate (Thermo Scientific; 265302) and an equal volume of ATPLite Istep luminescence reagent (Perkin Elmer, Waltham, MA; 6016731) was added to each well. Luminescence was measured using the CLARIOstar Plus (BMG LABTECH Inc., Cary, NC).

CXCR4 = CXCR4 (Homo sapiens, UniProt P61073); experiment: β-arrestin recruitment, 384-well, Tango CXCR4-bla U2OS cells, normalized to SDF-1α; assay type: cell-based; design: host or cells: U2OS; conditions: for Emax: U2OS
Experimental: Tango™ CXCR4-bla U2OS Cells (Invitrogen; K1779) were used for (β-arrestin recruitment assays and maintained as a monolayer culture in McCoy's 5a (Corning; 10-050-CV) supplemented with 10% dialyzed Fetal Bovine Serum (Gibco; 26400-044), 0.1 mM MEM Non-essential amino acids solution, 25 mM HEPES solution (Corning; 25-060-CI), 1 mM Sodium Pyruvate (Gibco; 11360-070), 200 μg/mL Zeocin selection reagent (Gibco; R25001), 50 μg/mL Hygromycin B (Gibco, 10687010), and 100 μg/mL Geneticin (G418 Sulfate) (Gibco, 10131035). U2OS cells were subcultured twice weekly by 0.05% Trypsin-EDTA treatment (Corning; 25-051-CI) and passaged to continue exponential growth phase for cell signaling assays. All cell cultures were maintained in cell culture incubators at 37° C. with 5% CO2. CHO-K1 CXCR4 cells (DiscoverX, Fremont, CA, USA) were used for cAMP inhibition assays and maintained as a monolayer culture in DMEM/F12 (Corning; 10-091-CV) supplemented with 10% Fetal Bovine Serum (Corning; 35-011-CV) and 100IU penicillin, […] streptomycin sulfate (Corning; 30-002-CI) and […] G418 (Gibco; 101310350. Cells were subculture 2 times weekly by o.o5% Trypsin-EDTA treatment (Corning; 25-051-CI) and passaged to continue exponential growth phase for cell signaling assays. All cell cultures were maintained in cell culture incubators at 37° C. with 5% CO2.CEM-CCRF cells (ATCC CCL-119) were used in both the migration and calcium flux assays and were cultured in growth media consisting of RPMI 1640 (Corning; 10-040-CV) supplemented with 10% Fetal Bovine Serum (Corning; 35-011-CV), and 100 IU penicillin, […] streptomycin sulfate (Corning; 30-002-CI). Cells were maintained in suspension and sub-cultured twice weekly to maintain cell densities between 0.8×10^6 cells/mL and 2.5×10^6 cells/mL to maintain exponential growth phase. Cells were harvested for use in migration and calcium flux assays at 2.0×10^6 cells/mL to 2.5×10^6 cells/mL and resuspended in assay media to desired density for respective experiments.
Tango™ CXCR4-bla U2OS Cells were resuspended in assay media consisting of DMEM (Corning; Corning, NY) supplemented with 1% dialyzed Fetal bovine serum, 0.1 mM MEM Non-essential amino acids solution, 25 mM HEPES solution (Corning; Corning, NY), 1 mM Sodium Pyruvate and 100 IU penicillin, […] streptomycin sulfate (Corning; Corning, NY) at a density of 3.0×10^5 cells/ml. Assay media FreeStyle 293 expression Medium (Gibco; 12338018) was used for testing the thiadiazine scaffold CXCR4 agonists. Cells suspension was dispensed at 30 μl per well into assay plate and incubated overnight in a cell culture incubator at 37° C. with 5% CO2. […] Following overnight incubation, LiveBlazer FRET B/G Loading Kit (Invitrogen; K1095) working reagent was prepared according to supplier guidelines and 6 μl of solution was dispensed into each well; 8 μL of solution for testing the thiadiazine scaffold CXCR4 agonists. Assay plate was covered and incubated in a dark place for two hours and Fluorescence Intensity was measured using the BMG LABTECH CLARIOstar Plus (BMG LABTECH Inc., Cary, NC) according to the LiveBlazer FRET B/G Loading Kit excitation and emission measurement guidelines.
Results are expressed as mean±SD for 3 to 5 independent experiments. Statistically significant differences in gene expression between two groups were assessed by Student's T-test, ANOVA with an appropriate post hoc test was be used for multiple comparisons. P<0.05 was considered to be statistically significant. All concentration response curves were analyzed to determine EC50 and Emax using the following equation:
where Y is the normalized response (0-100%), X is the log of concentration of compound tested, and the Hill slope is equal to 1.0% and 100% activity are specific to each assay. […]

[2] = normalized to SDF-1, read-out: TANGO β-arrestin EC50
[3] = normalized to SDF-1, read-out: TANGO β-arrestin Emax (%)
[4] = normalized to SDF-1α, read-out: ß-arrestin recruitment EC50

Chain of CXCR4 (P61073 whole entry): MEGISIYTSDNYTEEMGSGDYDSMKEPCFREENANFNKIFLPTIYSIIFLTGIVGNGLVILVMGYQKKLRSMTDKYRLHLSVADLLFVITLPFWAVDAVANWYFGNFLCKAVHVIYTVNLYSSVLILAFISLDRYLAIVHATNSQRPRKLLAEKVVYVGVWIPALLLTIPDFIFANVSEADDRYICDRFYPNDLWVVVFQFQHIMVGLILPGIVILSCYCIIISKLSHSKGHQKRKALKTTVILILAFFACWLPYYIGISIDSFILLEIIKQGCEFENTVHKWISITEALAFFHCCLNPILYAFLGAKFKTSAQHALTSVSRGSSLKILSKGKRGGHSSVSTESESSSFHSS

| SMILES | Migration CEM Emax (%) [1] | pEC50 ([1]; Homo sapiens) | TANGO β-arrestin Emax (%) (CXCR4; normalized to SDF-1) | pEC50 (CXCR4; [2]) | Emax ([1]; Homo sapiens) | EC50 ([1]; Homo sapiens) | Emax (CXCR4; [3]) | Emax (CXCR4; read-out: ß-arrestin recruitment Emax (%)) | pEC50 (CXCR4; [4]) | pEC50 [1] |
| --- | --- | --- | --- | --- | --- | --- | --- | --- | --- | --- |
| C=CCOc1ccc(C2=Nn3c(nnc3-c3ccccc3OCC)SC2)cc1 [Entry 7] | A (A ≥ 70) | > 5.30 | A (A ≥ 70) | > 5.30 | – | – | – | – | – | – |
| COCCOc1ccc(C2=Nn3c(nnc3-c3ccccc3OC)SC2)cc1 [Entry 8] | – | – | – | > 5.30 | < 35% | < 5 µM | < 35% | – | – | – |
| CCOc1ccccc1-c1nnc2n1N=C(c1ccc(OC(F)(F)F)cc1)CS2 [Entry 10] | – | – | – | > 5.30 | > 70% | 5 to 50 µM | > 70% | – | – | – |
| CCOc1ccccc1-c1nnc2n1N=C(c1ccc(OC(F)F)cc1)CS2 [Entry 11] | – | – | – | > 5.30 | > 70% | < 5 µM | 35 to 70% | – | – | – |
| COc1ccccc1-c1nnc2n1N=C(c1ccc(SC)cc1)CS2 [Entry 12] | – | > 5.30 | – | > 5.30 | 35 to 70% | – | > 70% | – | – | – |
| COc1ccccc1-c1nnc2n1N=C(c1ccc(N(C)C)cc1)CS2 [Entry 13] | – | > 5.30 | – | > 5.30 | 35 to 70% | – | > 70% | 91% | 7.22 | – |
| CCOc1ccccc1-c1nnc2n1N=C(c1ccc(N3CCCC3)cc1)CS2 [Entry 14] | B (35 < B < 70) | > 5.30 | – | > 5.30 | – | – | > 70% | – | – | – |
| CCOc1ccccc1-c1nnc2n1N=C(c1ccc(N3CCCC3)cc1)CS2 [Entry 15] | A (A ≥ 70) | – | A (A ≥ 70) | > 5.30 | – | – | – | – | – | > 5.30 |
| COc1ccccc1-c1nnc2n1N=C(c1ccc(N3CCOCC3)cc1)CS2 [Entry 16] | A (A ≥ 70) | – | A (A ≥ 70) | 4.30 to 5.30 | – | – | – | – | – | 4.30 to 5.30 |
| CCOc1ccccc1-c1nnc2n1N=C(c1ccc(N3CCCCC3)cc1)CS2 [Entry 27] | – | < 5.00 | – | < 5.00 | – | – | – | – | – | – |
| CCOc1ccccc1-c1nnc2n1N=C(c1ccc3c(c1)CCCN3)CS2 [Entry 29] | C (C ≤ 35) | – | A (A ≥ 70) | > 5.30 | – | – | – | – | – | 4.30 to 5.30 |
| CCOc1ccccc1-c1nnc2n1N=C(c1ccc(NC(C)=O)cc1)CS2 [Entry 30] | – | – | C (C ≤ 35) | > 5.30 | – | – | – | – | < 5.00 | < 5.00 |
| CCOc1ccccc1-c1nnc2n1N=C(c1ccc(NC(=O)C(C)C)cc1)CS2 [Entry 31] | – | – | – | < 5.00 | – | – | – | – | < 5.00 | < 5.00 |
| CCOc1ccccc1-c1nnc2n1N=C(c1ccc(NC(=O)C3CC3)cc1)CS2 [Entry 32] | C (C ≤ 35) | – | A (A ≥ 70) | > 5.30 | – | – | – | – | – | > 5.30 |
| CCOc1ccccc1-c1nnc2n1N=C(c1ccc(NC(=O)c3ccccc3)cc1)CS2 [Entry 34] | – | > 5.30 | – | > 5.30 | < 35% | – | 35 to 70% | – | – | – |
| CCOc1ccccc1-c1nnc2n1N=C(c1ccc(NC(=O)c3ccccc3C(=O)O)cc1)CS2 [Entry 35] | – | < 5.00 | – | < 5.00 | – | – | – | – | – | – |
| CCOc1ccccc1-c1nnc2n1N=C(c1ccc(NC(=O)c3cccc(C(=O)OC)c3)cc1)CS2 [Entry 36] | – | < 5.00 | – | < 5.00 | – | – | – | – | – | – |
| CCOc1ccccc1-c1nnc2n1N=C(c1ccc(NC(=O)c3ccc(C(=O)OC)cc3)cc1)CS2 [Entry 37] | – | < 5.00 | – | < 5.00 | – | – | – | – | – | – |
| CCOC(=O)CNc1ccc(C2=Nn3c(nnc3-c3ccccc3OCC)SC2)cc1 [Entry 40] | C (C ≤ 35) | – | C (C ≤ 35) | > 5.30 | – | – | – | – | < 5.30 | 4.30 to 5.30 |
| CCOC(=O)CCNc1ccc(C2=Nn3c(nnc3-c3ccccc3OCC)SC2)cc1 [Entry 41] | – | > 5.30 | – | > 5.30 | < 35% | – | 35 to 70% | – | – | – |
| C#CCCCNc1ccc(C2=Nn3c(nnc3-c3ccccc3OCC)SC2)cc1 [Entry 43] | C (C ≤ 35) | – | C (C ≤ 35) | > 5.30 | – | – | – | – | – | – |
